Source: patent publication EP0176033A2, “Isoxazolecarboxylic-acid derivatives, their preparation and use” (BASF Aktiengesellschaft, priority 1984, dated 1986)

Tested on: Rhino-Maus
Assay: Rhino mouse model: reduction of utriculus diameter after topical application (comedolytic activity)
Format: in vivo
Details: 100 µl on the back, once daily, 5 days per week, 2 weeks, versus untreated control group
Excerpt: Die antiarthritische Wirkung der erfindungsgemäßen Verbindungen kann in üblicher Weise im Tierexperiment im Adjuvans-Arthritis-Modell bestimmt werden. Die dermatologische Aktivität, beispielsweise für die Behandlung von Akne, kann u. a. durch die komedolytische Aktivität und die Fähigkeit nachgewiesen werden, die Anzahl der Zysten im Modell der Rhino--Maus zu reduzieren.
Diese Methode ist von L. H. Kligman et al in The Journal of Investigative Dermatology 73, 354 - 358 (1979) und von J.A. Mezick et al. in "Models of Dermatalogy" (Ed. Maibach, Läwe), Vol. 2, S. 59-63, Karger, Basel 1985) beschrieben.
Die Testsubstanz wurde in einem geeigneten Vehikel auf der gesamten Rückenpartie der Rhino-Maus topisch aufgetragen (100 µl), einmal täglich, an fünf aufeinanderfolgenden Tagen pro Woche, zwei Wochen lang ungefähr 72 h nach der letzten Behandlung wurde die dorsale Haut entfernt und in 0,5 Xiger Essigsäure 18 h bei 4-6°C belassen. Danach wurde eine ca. 2 x 5 cm^2 große Fläche herausgeschnitten, die Epidermis abgeschält, auf einen Objektträger aufgebracht (mit der dermalen Seite nach oben) und mittels Alkohol/Xylol wasserfrei gespült, bis die Epidermis durchsichtig erscheint. Die Probe wurde durch Uberziehen mit Permount fixiert und mikroskopisch ausgewertet. […]

C/C(=C\c1cc(C(=O)O)no1)c1ccc2c(c1)C(C)(C)CCC2(C)C [Beispiel 17a, (E)-5-[2-(5,5,8,8-Tetramethyl-5,6,7,8-tetrahydro-naphth--2-yl)-1-propenyl]isoxazol-3-carbonsäure]
Reduktion des Utriculusdurchmessers in % (Dosis 0,2 mg/ml): 45,1%
Reduktion des Utriculusdurchmessers in % (Dosis 2 mg/ml): 75,6%
